This is an account of results in ChEMBL document CHEMBL1130317 (J Med Chem, 1997).

For orientation: IC50 means the point on the concentration scale where inhibition reaches its midpoint. As usually defined, the inhibition is the share of the control response that was lost under treatment. Higher therefore signals a response far below the control.

For test [1], the target named is T1, Aldo-keto reductase family 1 member A1 (Rattus norvegicus, UniProt P51635).
T1 sequence (P51635 whole entry): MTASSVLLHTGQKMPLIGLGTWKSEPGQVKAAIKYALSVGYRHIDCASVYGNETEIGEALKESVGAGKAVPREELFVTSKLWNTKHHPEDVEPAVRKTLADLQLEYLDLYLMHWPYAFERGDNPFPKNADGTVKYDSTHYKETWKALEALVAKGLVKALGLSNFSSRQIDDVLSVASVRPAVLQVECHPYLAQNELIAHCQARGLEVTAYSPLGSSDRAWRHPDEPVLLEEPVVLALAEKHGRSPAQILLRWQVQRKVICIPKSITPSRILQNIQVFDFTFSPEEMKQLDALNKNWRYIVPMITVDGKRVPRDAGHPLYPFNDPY
Description: In vitro inhibitory activity against rat kidney aldehyde reductase(ALR).

The target of test [2] is Aldo-keto reductase family 1 member B1 (Rattus norvegicus, UniProt P07943). Description: Inhibitory activity against rat lens aldose reductase(AR).
For test [3], the target named is T2, Aldo-keto reductase family 1 member A1 (Rattus norvegicus) (UniProt P51635).
T2 sequence (whole entry): T1 sequence (P51635 whole entry)
Description: Percent inhibition of rat kidney Aldehyde reductase (ALR) at 1x10E-4 M.

For another test, the species on record is Rattus norvegicus. The test can be described thus: Ratio of IC50 value of rat kidney ALR to rat lens AR. Format: tissue-based. The note with it: Lens of camera-type eye.
Test [4] has as its target Aldo-keto reductase family 1 member B1 (Rattus norvegicus) (UniProt P07943). The test can be described thus: Inhibitory activity against rat lens aldose reductase(AR) at the concentration of 1*10e-7 M.

As to `O=C(O)Cn1ccc(=O)n(Cc2nc3c(Cl)cccc3s2)c1=O`, the concentration for half-maximal inhibition (IC50) in test [1] was greater than 100 µM; in test [2], 0.011 µM. Besides, the inhibition in test [3] was 39.3%. Further, the Ratio in the test filed under Rattus norvegicus was greater than 9090.

For the molecule `O=C(O)Cn1ccc(=O)n(Cc2nc3cc(Cl)ccc3s2)c1=O`, the IC50 in test [1] is greater than 100 µM; in test [2] it was 0.0057 µM. This molecule registered an inhibition in test [3] of 32%. Further, the Ratio in the test filed under Rattus norvegicus was greater than 17500.

For the molecule `O=C(O)CN1CC(=O)N(Cc2ccc(Cl)c([N+](=O)[O-])c2)C1=O`, the figures for the half-inhibitory concentration (IC50) in test [1] and in test [2] were greater than 100 µM and 0.024 µM, respectively. The molecule further registered an inhibition in test [3] of 1.6%. Besides, in the test filed under Rattus norvegicus, the Ratio is greater than 4170.

`O=C(O)CN1CC(=O)N(Cc2cccc([N+](=O)[O-])c2)C1=O` gave a half-inhibitory concentration (IC50) in test [1] greater than 100 µM. For the same molecule, the inhibition in test [3] was 3.8%; in test [4], 38.2%.

Consider `O=C(O)CN1C(=O)N(Cc2cccc([N+](=O)[O-])c2)C(=O)C1O` (configuration not stated), for which, in test [1], the half-inhibitory concentration (IC50) is greater than 100 µM. Also, the results for the inhibition in test [3] and in test [4] were 11% and 44%, respectively.

As for `O=C(O)CN1C(=O)C(=O)N(Cc2cccc([N+](=O)[O-])c2)C1=O`, the inhibition in test [3] came to 37.3%.

With `O=C(O)CN1C(=O)C(=O)N(Cc2nc3cc(Cl)ccc3s2)C1=O`, the IC50 came out at 58 µM in test [1] and 0.015 µM in test [2]. Also, in the test filed under Rattus norvegicus, the Ratio is 3870.

For `C=C1N(CC(=O)O)C(=O)C(=O)N1Cc1cccc([N+](=O)[O-])c1`, the IC50 in test [1] is greater than 100 µM. In addition, the inhibition worked out at 12.4% in test [3] and 17.7% in test [4].

Turning to `O=C(O)Cn1ccc(=O)n(Cc2cccc([N+](=O)[O-])c2)c1=O`, the IC50 in test [1] is greater than 100 µM; in test [2], 0.034 µM. Besides, the inhibition in test [3] is 17.4%. Besides, in the test filed under Rattus norvegicus, the Ratio was greater than 2940.

On to `O=C(O)CN1CC(=O)N(Cc2nc3cc(Cl)ccc3s2)C1=O`, for which, in test [4], the inhibition was found to be 47.5%.

`O=C(O)CN1C(=O)C(=O)N(Cc2cccc([N+](=O)[O-])c2)C1=S`: the IC50 was determined as 28 µM in test [1] and 0.025 µM in test [2]. Moreover, in the test listed under Rattus norvegicus, the Ratio amounted to 1120.

For `O=C(O)CN1C(=O)C(O)N(Cc2cccc([N+](=O)[O-])c2)C1=O` (configuration not stated), the IC50 in test [1] was greater than 100 µM. The inhibition in test [3] was 19%; in test [4] it was 5%.

On to `O=C(O)CN1CC(=O)N(Cc2nc3c(Cl)cccc3s2)C1=O`, for which the IC50 is greater than 100 µM in test [1] and 0.062 µM in test [2]. This molecule showed an inhibition in test [3] of 37%. Further, the Ratio in the test filed under Rattus norvegicus was greater than 1610.

Molecule `O=C(O)CN1C(=O)CC(=O)N(Cc2cccc([N+](=O)[O-])c2)C1=O` had an IC50 in test [1] greater than 100 µM. Besides, the inhibition was 33.5% in test [3] and 1.5% in test [4].

For `O=C(O)CN1C(=O)C(=O)N(Cc2nc3c(Cl)cccc3s2)C1=O`, the results for the IC50 in test [1] and in test [2] were 72 µM and 0.012 µM, respectively. In addition, the Ratio in the test filed under Rattus norvegicus stood at 6000.

Turning to `O=C(O)Cn1ccc(=O)n(Cc2ccc(Cl)c([N+](=O)[O-])c2)c1=O`, the IC50 in test [1] is greater than 100 µM; in test [2], 0.025 µM. Also, the inhibition in test [3] turned out to be 26.5%. For the same molecule, in the test listed under Rattus norvegicus, the Ratio is greater than 4000.

With `O=C(O)Cn1c(=O)ccn(Cc2cccc([N+](=O)[O-])c2)c1=O`, the IC50 in test [1] is greater than 100 µM. The inhibition in test [3] came out at 11.8%; in test [4], 27.8%.

In the case of `C=C1C(=O)N(CC(=O)O)C(=O)N1Cc1cccc([N+](=O)[O-])c1`, the IC50 in test [1] turned out to be 58 µM; in test [2], 0.032 µM. Moreover, in the test filed under Rattus norvegicus, the Ratio amounted to 1810.

For `O=C(O)CN1C(=O)CN(Cc2cccc([N+](=O)[O-])c2)C1=O`, the IC50 in test [1] was greater than 100 µM. Besides, the inhibition in test [4] was determined as 4.6%.

Take `O=C(O)CN1C(=O)C(=O)N(Cc2ccc(Cl)c([N+](=O)[O-])c2)C1=O`: the IC50 in test [1] is greater than 100 µM; in test [2], 0.016 µM. Further, the inhibition in test [3] was 39.5%. Moreover, the Ratio in the test listed under Rattus norvegicus is greater than 6250.
